Entries after “also recorded” stand apart in the source; their conditions may differ.
What was measured:
[1] = One-compartment simulation of TAC levels with various F values; parameters: species or system human; conditions: for half-life: human, blood, oral, read-out: Estimated TAC half-life (converted)
Source text: (§1) t1/2=0.693/ke Cmax=Ctrough+F*Dose/Vd
(§2) where C1 and C2 represent the TAC blood levels at times T1 and T2 in the same dosing interval (T2 > T1), respectively. Ctrough represents TAC blood levels immediately before administration and dose represents the TAC dose. The volume of distribution (Vd) was assumed to be 42 L (1 L/kg based on a body weight of 42 kg). If the Ctrough was unavailable, Ctrough was estimated using ke.
Next, we evaluated the duration of DDI using ensitrelvir. […] Consequently, when F was set to 0.125, the simulated TAC levels matched the measured levels at 7:00 on day 8 (Supplemental Table S1). The estimated F value of TAC (0.125) was similar to that reported in a previous report (0.25 ± 0.20), which indicates the limited effect of ensitrelvir on the intestinal absorption of TAC. […] These pharmacokinetic analyses indicate that the DDI effect of ensitrelvir gradually diminishes over 7–10 days after its discontinuation. […] Therefore, caution regarding DDI with ensitrelvir should be exercised for 7–10 days after discontinuation of ensitrelvir. Furthermore, in the case of irreversible CYP3A inhibition, the timing of CYP3A expression recovery varies among individuals. Therefore, TAC after ensitrelvir treatment should be restarted at a reduced dosage and its blood levels should be closely monitored.
^a The tacrolimus level was estimated using a one-compartment pharmacokinetics model for oral administration, without considering the absorption rate constant. For tacrolimus levels after day 8, only values predicted with F = 0.125 are shown.

[2] = One-compartment calculation of TAC elimination half-life from consecutive blood levels; type: in vivo; conditions: human, po, 1.5 mg, read-out: calculated t1/2 of TAC (converted)
Description: Assuming a one-compartment model, the elimination rate constant (ke), elimination half-life (t1/2), and maximum plasma concentration (Cmax) of TAC were calculated as follows: ke=lnC1/C2/T2-T1
as §1, §2

[3] = cited from earlier work
[4] = Pharmacokinetics of TAC (literature); type: in vivo; conditions: human, blood; assumed, 1 L/kg at body weight 42 kg; read-out: volume of distribution (Vd) of TAC
[5] = Laboratory parameters (Scr, ALT) in the patient; type: in vivo, human
[6] = TAC blood level monitoring (Siemens Dimension EXL200, ACMIA method) in the patient; conditions: human
CYP3A [7] = conditions: ensitrelvir co-administration; cited from earlier work
[8] = CT imaging of the lungs in the patient; type: in vivo, human; conditions: day 18, after ensitrelvir in combination with remdesivir
CYP3A [9] = tested on: CYP3A
[10] = cited from earlier work; remark: listed apart in the source
[11] = tested on: Cytochrome P450 3A (CYP3A); conditions: cited from earlier work
[12] = tested on: breast cancer resistance protein (BCRP); parameters: method as in PMID 37043676, PMID 37171749; conditions: cited from earlier work
P-gp = tested on: P-gp; parameters: method as in PMID 37043676; conditions: cited from earlier work
[13] = Pharmacokinetics of ensitrelvir (literature); type: in vivo, human; conditions: suggested from t1/2 51.4 h
CYP3A and P-gp = conditions: cited from earlier work
SARS-CoV-2 = assay: SARS-CoV2 PCR cycle threshold (Ct) in the patient; type: in vivo
Description: On the day of admission, the patient was started on a five-day course of remdesivir (200 mg IV once, followed by 100 mg IV every 24 h for 4 days). The patient was also administered corticosteroid (day -30 to -21, dexamethasone 6 mg PO, once daily after breakfast; day -20 to -17, prednisolone 30 mg PO, once daily after breakfast). On day -23, baricitinib (2 mg PO, once daily after breakfast for 6 days) was administered. On day -17, methylprednisolone (1,000 mg IV, once daily for 5 days) was administered, followed by dexamethasone (6 mg IV, once daily after breakfast). The cycle threshold (Ct) value from the SARS-CoV2 PCR after treatment ([…]) was 25.73, indicating persistent viral presence; therefore, a second five-day course of remdesivir was administered. On day -13, tocilizumab (360 mg IV, once daily) was administered. […] Consequently, a third course of remdesivir was initiated on day -2 (200 mg IV once, followed by 100 mg IV daily for 9 days). On day 0, the patient was started on ensitrelvir treatment (375 mg PO once, followed by 125 mg PO for 4 days) in combination with remdesivir. At the time of the start of ensitrelvir therapy (day 0), the patient was taking the following medications: TAC (1.5 mg PO, once daily after dinner), dexamethasone (6 mg IV, once daily), sulfamethoxazole/trimethoprim (400 mg/80 mg PO, once daily after breakfast), rosuvastatin (5 mg PO, once daily after breakfast), nicorandil (5 mg PO, 3 times daily after meals), aspirin (100 mg PO, once daily after breakfast), esomeprazole (20 mg PO, once daily after breakfast), rivastigmine patch (18 mg, once daily), and subcutaneous denosumab (60 mg, every six months). The patient had received a COVID-19 vaccine approximately one year ago. The patient had no supplements or over-the-counter drugs. Grapefruit was not offered during the hospital stay. Before the start of ensitrelvir therapy, a clinical pharmacist informed the attending physician regarding the potential DDI between ensitrelvir and TAC or rosuvastatin (BCRP substrate) and recommended avoiding the concomitant use. Consequently, TAC was discontinued from the day before the start of ensitrelvir (day -1), and TAC blood levels were frequently monitored using a Siemens Dimension EXL200 with Flex Cartridge Tacrolimus (ACMIA method, Siemens). Rosuvastatin treatment was discontinued on day 0. Given that ensitrelvir is metabolized by CYP3A [17], dexamethasone, which reportedly induces CYP3A [18], was replaced with methylprednisolone on day 1.

P-glycoprotein (P-gp) = tested on: P-glycoprotein (P-gp); parameters: method as in PMID 37043676, PMID 37171749; conditions: cited from earlier work

C=CC[C@@H]1/C=C(\C)C[C@H](C)C[C@H](OC)[C@H]2O[C@@](O)(C(=O)C(=O)N3CCCC[C@H]3C(=O)O[C@H](/C(C)=C/[C@@H]3CC[C@@H](O)[C@H](OC)C3)[C@H](C)[C@@H](O)CC1=O)[C@H](C)C[C@@H]2OC [TAC, Tacrolimus]
estimated F value of TAC ([1]; after ensitrelvir administration, simulated levels matched measured level at 7:00 on day 8): 0.125
half-life ([1]; 1 mg, day 8 to 12, assuming bioavailability 0.125): 39.9 h
half-life ([1]; 1 mg, day 12 to 14, assuming bioavailability 0.125): 23.4 h
half-life ([1]; Day5, 7:00 to Day8, 7:00, hypothesized to continue from days 2-5 until day 8): 115 h
half-life ([2]; day 0 to 2, under ensitrelvir): 71.9 h
half-life ([2]; day 2 to 5, under ensitrelvir): 115 h
half-life ([2]; day -1 to 0, before ensitrelvir): 33.7 h
volume of distribution (Vd) of TAC ([3]; assumed): 1 L/kg
F value of TAC in a previous report [3]: 0.25 ± 0.20
reported t1/2 of TAC [3]: 32 h
Vd [4]: 42 L
Scr levels ([5]; TAC maintained at 1.5 mg daily, normal range 0.75—1.0 mg/dL): within normal range
concentration at 11 h ([6]; oral): 5.1 ng/mL
concentration at 12 h ([6]; oral, 1 mg): 6.5 ng/mL
concentration at 20 h ([6]; oral, 1 mg): 3.7 ng/mL
concentration at 21.5 h ([6]; oral, 1.5 mg): 3.6 ng/mL
concentration at 35.5 h ([6]; oral, 1.5 mg): 2.7 ng/mL
concentration at 83.5 h ([6]; oral, 1.5 mg): 1.7 ng/mL
concentration at 155.5 h ([6]; oral, 1.5 mg): 1.1 ng/mL
concentration at 5 days ([6]; oral, 2 mg): 6.6 ng/mL
concentration at 36 h ([6]; po, 0.2 mg): 1 ng/mL
concentration at 12 h ([6]; po, 1 mg): 3.9 ng/mL

Cn1cnc(Cn2c(=O)[nH]/c(=N\c3cc4cn(C)nc4cc3Cl)n(Cc3cc(F)c(F)cc3F)c2=O)n1 [ensitrelvir, Ensitrelvir]
increase of AUC of midazolam (CYP3A [7]): 6.7 fold
increase of t1/2 of midazolam (CYP3A [7]): 2.3 fold
CT imaging of lung fields [8]: improved inflammation in both lung fields
time over which the DDI effect diminished/resolved (CYP3A [9]; after discontinuation of ensitrelvir): 7 to 10 days
increase in the AUC of TAC by inhibition of CYP3A in the liver (CYP3A [9]; inferred from t1/2 prolongation): threefold increase
half-life of ensitrelvir [10]: approximately 50 h
inhibition of CYP3A [11]: strongly inhibits
manner of CYP3A inhibition [11]: time-dependent and irreversible manner
inhibition of BCRP [12]: strongly inhibits
effect on AUC of digoxin (P-gp substrate) (P-gp): increased the AUC of digoxin
time required to clear ensitrelvir from the body [13]: 7 to 8 days
increase in TAC trough/blood levels with concurrent ensitrelvir (CYP3A and P-gp): approximately threefold; also recorded: approximate three-fold increase
Scr level ([5]; during ensitrelvir treatment): remained within normal ranges
alanine aminotransferase (ALT) level ([5]; during ensitrelvir treatment): remained within normal ranges
SARS-CoV-2 PCR Ct value (SARS-CoV-2; day 0, start of ensitrelvir in combination with remdesivir): 25.88
SARS-CoV-2 PCR Ct value (SARS-CoV-2; day 5, ensitrelvir in combination with remdesivir): 30.03
SARS-CoV-2 PCR Ct value (SARS-CoV-2; day 12, after ensitrelvir in combination with remdesivir): 34.36
SARS-CoV-2 PCR Ct value (SARS-CoV-2; day 19, after ensitrelvir in combination with remdesivir): 34.89
inhibition of P-gp (P-glycoprotein (P-gp)): strongly inhibits

CCC(CC)COC(=O)[C@H](C)N[P@](=O)(OC[C@H]1O[C@@](C#N)(c2ccc3c(N)ncnn23)[C@H](O)[C@@H]1O)Oc1ccccc1 [remdesivir]
SARS-CoV2 PCR Ct value (SARS-CoV-2; after first five-day course of remdesivir, day 15 (so in the source)): 25.73
SARS-CoV2 PCR Ct value (SARS-CoV-2; day -7, after second five-day course of remdesivir): 26.18

Source: publication PMC11756168, “Drug-drug interaction between ensitrelvir and tacrolimus in a patient undergoing treatment for COVID-19: a case report” (Journal of Pharmaceutical Health Care and Sciences, 2025)
